Measured values reported in paper PMC9545474, “Anticancer Water‐Soluble Organoruthenium Complexes: Synthesis and Preclinical Evaluation” (Chembiochem, 2022).
Like-named read-outs stand apart in the source and are kept apart here.

Legend:
A2780 cells = assay: JC-10 mitochondrial membrane potential assay by flow cytometry; type: cell-based, human; details: A2780, 24 h, complexes at IC50, cisplatin 6.5 µM
Description: A membrane potential sensitive fluorescent probe JC‐10 was used to determine whether the apoptosis induced by complexes 6 and 8 is accompanied by changes in the mitochondrial membrane potential (ΔΨm) of A2780 cells. JC‐10 aggregates inside mitochondria and emits orange fluorescence. Following membrane […], JC‐10 is disaggregated and this in turn reduces the orange fluorescence.
Figure 8 Effect of complexes 6 and 8 on the mitochondrial membrane potential. […] The percentages of cells with depolarised mitochondrial membrane potential were assessed by flow cytometry after staining with JC‐10. The data are expressed as the means±SD of the three individual experiments.
Mitochondrial membrane potential assay: Analysis of the changes of mitochondrial potential in A2780 cells after exposure to complexes 6 and 8 was carried out using the JC‐10 mitochondrial membrane potential assay kit (abcam®) according to the manufacturer's instructions. Briefly, 1.0×10^6 cells per well were seeded in a 6‐well plate and incubated for 24 at 37 °C and a 5 % CO2 humidified atmosphere. […] Supernatants were removed by suction, and each well was washed with PBS before detaching the cells using trypsin. Staining of the samples was done in tubes protected from light, incubating for 30 min in the dark at room temperature. Samples were immediately analysed on a BD Accuri C6 Plus System Flow Cytometer, reading the reduction of fluorescence in the FL2 channel.

[1] = test system: A2780 ovarian cancer cells; assay: 24-hour MTT chemosensitivity assay with 72-hour recovery, A2780; type: cell-based, human; details: for IC50: 24 h exposure, 72 h recovery, MTT, read-out: IC50 values ±SD, A2780
Procedure: (§1) Chemosensitivity studies were undertaken using a 24‐hour MTT assay, with a 72‐hour recovery period. The IC50 values were determined against ovarian A2780 (cisplatin‐sensitive) and A2780cisR (cisplatin‐resistant) cancer cell lines, non‐small‐cell lung H460 cancer cell line, and normal prostate PNT2 cell line, exposed to each of compounds 4–8, cisplatin or the phosphine ligands (Table 1 and S4, Figures S29–S31). […] This is unusual but can be related to solubility issues not visible for the naked eye and thus hindering its activity in cells. […] When tested on their own, the phosphine ligands are not active below 100 μM for all four cell lines. […] This therefore prevents comparison with the well‐known RAPTA family, and more especially with RAPTA−C which bears a PTA ligand and a p‐cym ligand, making this complex relatively similar in terms of geometry with complex 4.[21] […] This confirms the interest of the sulfur coordinating atom in terms of cytotoxicity for organoruthenium complexes.[23]
(§2) Chemosensitivity assay: In vitro chemosensitivity tests were performed against A2780, A2780cisR, PNT2 and H460 cells. Cells were routinely maintained as monolayer cultures in RPMI 1640 medium supplemented with 10 % foetal calf serum, penicillin (100 I.U./mL) and streptomycin (100 μg/mL), sodium pyruvate (1 mM) and L‐glutamine (2 mM). For chemosensitivity studies, cells were seeded in 96‐well plates at a concentration of 7.5×10^3 cells per well and the plates were incubated for 24 h at 37 °C and a 5 % CO2 humidified atmosphere prior to drug exposure.
(§3) Complexes were dissolved in either DMSO (complexes 4, 5, and 8) or PBS (complexes 6 and 7) to provide stock solutions which were further diluted with media to provide a range of final concentrations. Drug‐media solutions were added to cells (the final concentration of DMSO was less than 1 % (v/v) in all cases) and incubated for 24 h at 37 °C and a 5 % CO2 humidified atmosphere. The drug‐media solution was removed from the wells and the cells were washed with PBS (100 μL, twice) and 200 μL of complete fresh media were added to each well. The plates were further incubated for 72 h at 37 °C and a 5 % CO2 humidified atmosphere to allow for a period of recovery. 3‐(4,5‐dimethylthiazol‐2‐yl)‐2,5‐diphenyltetrazolium bromide (MTT) (40 μL, 2.5 mg/mL) was added to each well and plates were incubated for 2 h. All solutions were then removed and 100 μL of DMSO was added to each well in order to dissolve the purple formazan crystals. A Thermo Scientific Multiskan EX microplate photometer was used to measure the absorbance in each well at 570 nm. Cell survival was determined as the absorbance of treated cells divided by the absorbance of controls and expressed as a percentage. The IC50 values were determined from plots of % survival against drug concentration. Each experiment was repeated in triplicates of triplicates and a mean value was obtained and stated as IC50 (μM) ± SD. Untreated cells were used as a negative control, and cells treated with cisplatin were used as a positive control.

[2] = test system: H460 non-small-cell lung cancer cells; assay: 24-hour MTT chemosensitivity assay with 72-hour recovery, H460; type: cell-based; details: for IC50: 24 h exposure, 72 h recovery, MTT, read-out: IC50 values ±SD, H460
Procedure: as §1, §2, §3

[3] = test system: A2780cisR cisplatin-resistant ovarian cancer cells; assay: 24-hour MTT chemosensitivity assay with 72-hour recovery, A2780cisR; type: cell-based, human; details: for IC50: 24 h exposure, 72 h recovery, MTT, read-out: IC50 values ±SD, A2780cisR
Procedure: as §1, §2, §3

[4] = test system: PNT2 non-cancerous human prostate cells; assay: 24-hour MTT chemosensitivity assay with 72-hour recovery, PNT2; type: cell-based; details: 24 h exposure, 72 h recovery, MTT; read-out: IC50 values ±SD, PNT2
Procedure: as §1, §2, §3

[5] = Precipitation in drug-medium solutions; type: physicochemical
[6] = test system: A2780 ovarian cancer cells; design: method as in PMID 32237195; details: read-out: IC50 values ±SD, A2780; cited from earlier work
[7] = test system: H460 non-small-cell lung cancer cells; design: method as in PMID 32237195; details: read-out: IC50 values ±SD, H460; cited from earlier work
[8] = test system: non-immortalised lymphocytes; design: method as in PMID 33119178; details: cited from earlier work
[9] = test system: A2780cisR cisplatin-resistant ovarian cancer cells; design: method as in PMID 32237195; details: read-out: IC50 values ±SD, A2780cisR; cited from earlier work
[10] = test system: ovarian, colon, and lung cancer cell lines; design: method as in PMID 32237195; details: some ovarian; cited from earlier work
MCF-7 cell line = test system: MCF-7 cell line; design: method as in PMID 27357845; details: read-out: EC50 against MCF-7 cell line; cited from earlier work

## N.N.[Cl][Pt][Cl] [Cisplatin, reference compound]
A2780 cells; Experiment 1
  % cell population with high orange fluorescence: 88.9%
  % cell population with low orange fluorescence: 11.1%
A2780 cells; Experiment 2
  % cell population with high orange fluorescence: 87%
  % cell population with low orange fluorescence: 13.0%
A2780 cells; Experiment 3
  % cell population with high orange fluorescence: 82.1%
  % cell population with low orange fluorescence: 17.9%
A2780 cells; Summary, mean values ± SD
  % cell population with high orange fluorescence: 86 ± 3.5%
[1]
  IC50: 6.5 ± 0.4 µM
[1]; mean IC50 PNT2 / mean IC50 A2780
  Selectivity index (SI), A2780: 1.85
[2]
  IC50: 4.5 ± 0.2 µM
[2]; mean IC50 PNT2 / mean IC50 H460
  Selectivity index (SI), H460: 2.67
[3]
  IC50: 18 ± 0.6 µM
[3]; IC50 A2780cisR / IC50 A2780
  Selectivity factor (cross-resistance, resistance factor RF): 2.8
[3]; mean IC50 PNT2 / mean IC50 A2780cisR
  Selectivity index (SI), A2780cisR: 0.67
[4]
  IC50: 12 ± 0.7 µM

## Cc1ccc(C(C)C)cc1.N#CC1=C(C#N)[S][Ru-]([P+]23CN4CN(CN(C4)C2)C3)[S]1 [Complex 4, (η^6‐p‐cymene)(PTA)Ru(Mnt)]
[1]
  IC50: ≥ 50 µM
[2]
  IC50: ≥ 50 µM
[3]
  IC50: ≥ 50 µM
[5]
  Concentration above which the complex precipitates: higher than 50 μM
[4]
  IC50: ≥ 50 µM

## Cc1ccc(C(C)C)cc1.N#CC1=C(C#N)[S][Ru][S]1 [Complex 3, [(η^6‐p‐cymene)Ru(Mnt)]]
[6]
  IC50: 0.5 ± 0.04 µM
[7]
  IC50: 0.8 ± 0.1 µM
[8]
  Toxicity against non-immortalised lymphocytes from healthy individuals: absence of toxicity
[9]
  IC50: 0.32 ± 0.15 µM
[10]
  Potency relative to cisplatin: 5 to 60 ×

## Cc1ccc(C(C)C)cc1.[Cl][Ru-]1[O][n+]2ccccc2[S]1 [[(η^6‐p‐cymene)Ru(pyrithionato)Cl]]
MCF-7 cell line
  EC50: 3.81 ± 0.06 µM
